Test [1] concerns the target ERα ligand binding domain (Homo sapiens, UniProt P03372). Nature of the test: Competitive [3H]-estradiol binding assay, ER-α (Example 21). The conditions noted are these: for inhibition at 0.1 µM: 100 nM of compound, read-out: Percent Inhibition of [3H]-Estradiol Binding to ER-α; for pKi: read-out: ER-α binding constant (Ki). Here is the method: (§1) ER binding affinity was determined via one of the following methods:
(§2) Briefly, the incubation mixture was filtered through a high affinity protein binding filter, and washed several times to remove any unbound radioactivity. The filter plate was air dried and sealed on the bottom.
(§3) Nonspecific binding was subtracted from total binding to yield specific binding.

Test [2] deals with ERβ ligand binding domain (Homo sapiens, UniProt Q92731). The test can be described thus: Competitive [3H]-estradiol binding assay, ER-β (Example 21). The conditions noted are these: for inhibition at 0.1 µM: read-out: Percent Inhibition of [3H]-Estradiol Binding to ER-β; for pKi: read-out: ER-β binding constant (Ki). Here is the method:
as §1, §2, §3

Test [3] addresses ER-β (Rattus norvegicus (Rat), UniProt Q62986). The test can be described thus: ER-β transactivation (ERE-LUC) in COS or 293 cells. The format is cell-based. The note with it: for activation at 0.1 µM: HEK293, 48 h.
The target of test [4] is ER-α (Rattus norvegicus (Rat), UniProt P06211). It counts as cell-based. The note with it: 100 nM compound compared to 1 nM estradiol. Here is the method:
COS or 293 cells were plated in DME without phenol red+10% cs FBS at 90,000 cells per well in 24 well plates, and were transfected with 0.25 μg of the vector “ERE-LUC”, where a firefly luciferase gene was driven by two estrogen responsive elements and 0.02 μg of the control CMV-LUC, Renilla where a luciferase gene was driven by a CMV promoter. […] All the receptors were cloned from rat tissue into the PCR3.1 vector backbone. Twenty four hours post transfection, cells were treated with compounds of this invention, estrogen, DHT, and other NRBAs or combinations thereof. Cells were harvested 48 hrs after transfection, and assayed for firefly and Renilla luciferase activity.

For test [5], the system named is rat aorta rings. Nature of the test: Rat aortic ring relaxation. The conditions noted are these: 10^-6 PE constriction; for pEC50: Rattus norvegicus. An excerpt:
Experimental protocol. Equipment used in these studies included a 4-tissue bath system with reservoirs and circulators (RadnotiGlass Technology, Monrovia, Calif.), DSI/Ponemah tissue force analyzer 7700 (Valley View, Ohio), and iWorx/CB Sciencesforce transducers FT-302. The 250 g rats were anesthetized with isoflurane to produce deep anesthesia. The chest of the rat was opened, and about 3 cm length of aorta was removed and placed in a Petri dish containing room temperature Krebs salt solution (KSS, in mM: 120 NaCl, 5 KCl, 1.2 MgSO4.7H20, 2.5 CaCl2.2H2O, 1 KH2PO4, 25 NaHCO3, and 11 glucose). Fat and connective tissue were removed from the aorta taking care not to stretch the vessel. The aorta was then divided into 3-mm-wide rings. Triangular wire holders were inserted through the lumen of the vessel and connected to the force transducer and tissue holder rod in the vessel bath.
Analog-to-digital conversions of force waveforms were accomplished with a DSI/Ponemah tissue force analyzer 7700. The converted data were automatically analyzed with Ponemah Physiology-Smooth Muscle software. All data are summarized as means±standard error. Differences between means were assessed by a conventional ANOVA. This was followed by Student's test. P<0.05 was considered to be statistically significant.
The tension on the rings was adjusted to 1.0 g passive force using the tension adjustment dial for each transducer and allowed to equilibrate for 60 min in the bath with a 95% O2-5% CO2 gas mixture. The rings were washed with fresh buffer every 20 min. Passive force was readjusted to 1.0 g as needed during this period. When rings were stable at 1.0 g of passive force, the baseline was calculated.
Phenylephrine (PE) at a final concentration of […] was added to the bath to contract the ring, and force was allowed to stabilize for 10 min. Then acetylcholine (ACH) at a final concentration of 10^−5 M was added to the precontracted rings to test for endothelial integrity […]. After the initial test for vessel viability and endothelial integrity, the rings were washed three times for 10 min with buffer, allowing it to equilibrate to active force stabilized at 1 g.
Cumulative concentration-response curves to NRBAs were created by increasing the NRBAs concentration in the tissue bath by successive addition of appropriate dilutions of stock solutions to achieve final bath concentrations of 300 nM to 0.15 mM NRBAs.
Table 10 summarizes EC50 values and maximal % decrease of the 10^−6 PE constriction of the aortic ring for individual NRBAs tested

For test [6], the system named is Rat Aortic Smooth Muscle Cells (RASMC). The test can be described thus: RASMC cell proliferation assay (WST-1). It counts as cell-based. The conditions noted are these: for pEC50: inhibitory effect sigmoid Emax model, read-out: EC50 for inhibition of RASMC proliferation; for Proliferation of RASMC: concentration between 10-30 μM. Here is the method:
EC50 values were calculated using WinNonLin 5.0.1 using the inhibitory effect sigmoid Emax model.

For test [7], the system named is ARPE-19 cells. Nature of the test: Fluorescent detection of intracellular ROS. It counts as cell-based, Human. The note with it: 150 μM tBH. The source says: Cells were allowed to adhere overnight. […] Removed and washed cells once with HBSS. […] Each drug concentration was done in triplicates.
Where [8] appears, read: read-out: Estradiol activity at 100 nM of NRBA, ER-β.

pEC50, pKi: −log10 of the molar value. Entries after “also recorded” stand apart in the source; their conditions may differ. Like-named read-outs stand apart in the source and are kept apart here. Where only a bound is given, the exact number is not on record here.

Chain of ERα ligand binding domain (P03372 whole entry, looked up, the tested form may be a part): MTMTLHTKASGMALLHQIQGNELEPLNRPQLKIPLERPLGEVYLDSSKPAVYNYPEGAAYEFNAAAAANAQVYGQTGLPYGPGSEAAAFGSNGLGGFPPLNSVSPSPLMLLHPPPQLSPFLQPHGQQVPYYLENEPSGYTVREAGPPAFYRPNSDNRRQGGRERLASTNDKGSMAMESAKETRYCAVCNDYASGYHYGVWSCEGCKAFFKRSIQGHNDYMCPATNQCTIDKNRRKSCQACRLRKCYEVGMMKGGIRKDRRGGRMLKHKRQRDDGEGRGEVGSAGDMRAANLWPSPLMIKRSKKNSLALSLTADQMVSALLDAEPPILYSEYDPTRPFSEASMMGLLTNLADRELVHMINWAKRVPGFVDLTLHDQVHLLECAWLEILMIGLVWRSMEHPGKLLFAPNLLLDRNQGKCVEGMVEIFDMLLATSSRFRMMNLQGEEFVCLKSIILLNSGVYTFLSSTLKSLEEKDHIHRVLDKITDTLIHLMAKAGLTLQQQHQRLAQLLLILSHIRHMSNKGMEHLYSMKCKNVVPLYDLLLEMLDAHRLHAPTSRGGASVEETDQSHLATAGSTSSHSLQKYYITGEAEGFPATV
Chain of ER-β (Q62986 whole entry): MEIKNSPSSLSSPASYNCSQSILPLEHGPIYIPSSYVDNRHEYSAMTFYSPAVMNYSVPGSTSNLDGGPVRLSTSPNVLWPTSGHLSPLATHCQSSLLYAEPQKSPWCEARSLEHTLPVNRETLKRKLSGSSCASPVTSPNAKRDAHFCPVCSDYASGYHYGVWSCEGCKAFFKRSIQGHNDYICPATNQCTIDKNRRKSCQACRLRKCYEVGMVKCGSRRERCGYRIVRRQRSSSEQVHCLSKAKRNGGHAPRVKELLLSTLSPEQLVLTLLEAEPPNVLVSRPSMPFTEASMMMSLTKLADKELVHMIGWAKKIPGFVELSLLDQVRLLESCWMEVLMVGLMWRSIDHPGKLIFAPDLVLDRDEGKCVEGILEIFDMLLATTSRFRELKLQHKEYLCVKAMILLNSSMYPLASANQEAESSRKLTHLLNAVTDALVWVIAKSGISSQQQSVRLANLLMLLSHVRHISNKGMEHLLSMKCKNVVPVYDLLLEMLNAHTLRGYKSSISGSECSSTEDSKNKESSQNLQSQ
Chain of ERβ ligand binding domain (Q92731 whole entry, looked up, the tested form may be a part): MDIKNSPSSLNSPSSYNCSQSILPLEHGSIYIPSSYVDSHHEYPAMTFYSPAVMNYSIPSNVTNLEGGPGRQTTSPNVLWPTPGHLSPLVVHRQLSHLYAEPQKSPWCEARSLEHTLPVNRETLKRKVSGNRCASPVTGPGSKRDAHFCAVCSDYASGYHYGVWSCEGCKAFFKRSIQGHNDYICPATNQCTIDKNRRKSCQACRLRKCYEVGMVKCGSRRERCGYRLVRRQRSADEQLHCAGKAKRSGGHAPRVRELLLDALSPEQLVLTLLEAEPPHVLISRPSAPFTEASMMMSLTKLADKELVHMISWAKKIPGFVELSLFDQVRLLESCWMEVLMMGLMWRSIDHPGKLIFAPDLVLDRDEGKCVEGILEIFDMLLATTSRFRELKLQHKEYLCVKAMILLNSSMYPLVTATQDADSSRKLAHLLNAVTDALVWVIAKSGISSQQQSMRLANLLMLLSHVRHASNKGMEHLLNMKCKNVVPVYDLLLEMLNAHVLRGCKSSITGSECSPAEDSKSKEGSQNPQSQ

As usually defined, the inhibition is the drop in the measured response relative to a control, in per cent. On to `O=c1c2ccc(O)cc2c(Br)cn1-c1ccc(O)c(F)c1` [12d, 4-bromo-2-(3-fluoro-4-hydroxyphenyl)-6-hydroxy-isoquinolin-1(2H)-one], for which the inhibition at 0.1 µM in test [1] came to 0%; in test [2], 38.7%.
Turning to `O=c1c2ccc(O)cc2c(Cl)cn1-c1ccc(O)cc1` [12f, 4-chloro-6-hydroxy-2-(4-hydroxyphenyl)-isoquinolin-1(2H)-one], in test [1], the inhibition at 0.1 µM worked out at 0%. Further, in test [2], the “Ki Ratio (ER-α/ER-β)” value is reported as 61 and the inhibition at 0.1 µM is 47.5%. In addition, in test [3], the ER-β agonist activity entry is “ER-β agonist activity”.
On to `O=c1c2ccc(O)cc2c(Cl)cn1-c1ccc(O)c(F)c1` [12g, 4-chloro-2-(3-fluoro-4-hydroxyphenyl)-6-hydroxy-isoquinolin-1(2H)-one], for which the inhibition at 0.1 µM in test [1] turned out to be 0%; in test [2] it was 29.4%.
On to `O=c1c2ccc(O)cc2c(I)cn1-c1ccc(O)cc1` [12h, 6-hydroxy-2-(4-hydroxyphenyl)-4-iodoisoquinolin-1(2H)-one], for which the inhibition at 0.1 µM in test [1] was found to be 7.7%; in test [2] it was 40.5%. Also, the “Ki Ratio (ER-α/ER-β)” value in test [2] worked out at 22. Further, the ER-β agonist activity result in test [3] was “ER-β agonist activity”.
Consider `O=c1c2c(O)cc(O)cc2ccn1-c1ccc(O)cc1` [12l, 6,8-dihydroxy-2-(4-hydroxyphenyl)-isoquinolin-1(2H)-one], for which the inhibition at 0.1 µM came out at 2.5% in test [1] and 34.4% in test [2].
On to `O=c1c2c(O)cc(O)c(Br)c2ccn1-c1ccc(O)cc1` [12m, 5-bromo-6,8-dihydroxy-2-(4-hydroxyphenyl)isoquinolin-1(2H)-one], for which the inhibition at 0.1 µM is 5.2% in test [1] and 0% in test [2].
`O=c1c2ccc(O)cc2c(I)cn1-c1ccc(O)c(F)c1` [12n, 2-(3-fluoro-4-hydroxyphenyl)-6-hydroxy-4-iodoisoquinolin-1(2H)-one]: the inhibition at 0.1 µM in test [1] was determined as 6.2%; in test [2], 8.7%.
In the case of `Oc1ccc(-n2ccc3cc(O)cc(O)c3c2=S)cc1` [12p, 2-(4-hydroxyphenyl)-6,8-dihydroxy-isoquinoline-1(2H)-thione], the inhibition at 0.1 µM in test [1] is 25.8%. Further, in test [2], the “Ki Ratio (ER-α/ER-β)” value is 8 and the inhibition at 0.1 µM turned out to be 80.7%. Further, the “Estradiol activity at 100 nM of NRBA, ER-α” value (from here on “Estradiol activity at 100 nM”) in test [4] stood at 45%. The ER-β agonist activity result in test [3] is on record as “ER-β agonists; also recorded: ER-β agonist activity”. Moreover, the activation at 0.1 µM in test [3] (setting [8]) amounted to 85%.
Regarding `COc1cc(O)c2c(=O)n(-c3ccc(O)cc3)ccc2c1C#N` [12q, 8-hydroxy-2-(4-hydroxyphenyl)-6-methoxy-1-oxo-1,2-dihydroisoquinoline-5-carbonitrile], in test [4], the “Estradiol activity at 100 nM” value worked out at 25%. In addition, in test [3] (setting [8]), the activation at 0.1 µM is 10%.
As to `Oc1ccc(-n2cc(Br)c3cc(O)ccc3c2=S)cc1` [12r, 4-bromo-6-hydroxy-2-(4-hydroxyphenyl)isoquinoline-1(2H)-thione], the inhibition at 0.1 µM in test [1] amounted to 35.7%; in test [2], 75.5%.
In the case of `O=c1c2c(O)cc(O)cc2ccn1-c1ccc(O)c(F)c1` [12s, 2-(3-fluoro-4-hydroxyphenyl)-6,8-dihydroxyisoquinolin-1(2H)-one], the figures for the inhibition at 0.1 µM in test [1] and in test [2] were 4.5% and 52.8%, respectively. Besides, the “Ki Ratio (ER-α/ER-β)” value in test [2] came to 25. In addition, the “Estradiol activity at 100 nM” value in test [4] amounted to 29%. Moreover, in test [3], the ER-β agonist activity entry is “ER-β agonist activity”. Moreover, in test [3] (setting [8]), the activation at 0.1 µM is 76.9%.
Regarding `COc1cc(O)c2c(=O)n(-c3ccc(O)cc3)cc(Br)c2c1` [12v, 4-bromo-8-hydroxy-2-(4-hydroxyphenyl)-6-methoxyisoquinolin-1(2H)-one], the “Estradiol activity at 100 nM” value in test [4] is 17%. Also, the activation at 0.1 µM in test [3] (setting [8]) amounted to 10%.
For orientation: pKi means the Ki on a negative log10 scale, so that one unit is a factor of ten. As to `O=c1c2c(O)cc(O)cc2c(Br)cn1-c1ccc(O)c(F)c1` [12z, 4-bromo-6,8-dihydroxy-2-(3-fluoro-4-hydroxyphenyl)isoquinolin-1(2H)-one], in test [1], the inhibition at 0.1 µM is 52.8%. For the same molecule, in test [2], the “Ki Ratio (ER-α/ER-β)” value is listed as 12, the pKi is 8.52 and the inhibition at 0.1 µM stood at 95.3%. In addition, the ER-β agonist activity entry in test [3] is “ER-β agonist activity”. For the same molecule, in test [5], the “Mean of Maximal % Decrease of the PE constriction of the aortic ring” value is 83.58% and the pEC50 was 4.82. In test [6] (Rattus norvegicus), the pEC50 was 4.60. Besides, the “Prevention of ROS formation / oxidative stress” value in test [7] is “able to prevent ROS formation as well as estradiol; also recorded: protected ARPE-19 cells from oxidative damage”.
With `N#Cc1cc(O)cc2c(Br)cn(-c3ccc(O)cc3)c(=O)c12` [14k, 4-bromo-6-hydroxy-2-(4-hydroxyphenyl)-1-oxo-1,2-dihydroisoquinoline-8-carbonitrile], the figures for the pKi in test [1] and in test [2] were below 6.40 and 7.34, respectively.
For the molecule `C=Cc1cn(-c2ccc(O)cc2)c(=O)c2c(O)cc(O)cc12` [14l, 6,8-dihydroxy-2-(4-hydroxyphenyl)-4-vinylisoquinolin-1(2H)-one], the “Estradiol activity at 100 nM” value in test [4] is 50%. Besides, the activation at 0.1 µM in test [3] (read-out: Estradiol activity at 100 nM of NRBA, ER-β, 100 nM compound compared to 1 nM estradiol) turned out to be 52.7%. Besides, in test [5], the “Mean of Maximal % Decrease of the PE constriction of the aortic ring” value is 45.01% and the pEC50 is 4.70. For the same molecule, the pEC50 in test [6] (Rattus norvegicus) is 5.02. Also, in test [6], the “Proliferation of RASMC” value is on record as “inhibited the proliferation of RASMC in a dose-dependent manner”. In addition, in test [7], the “Inhibition of ROS formation” value is recorded as “more than 50%” and the “Prevention of ROS formation / oxidative stress” value is listed as “protected ARPE-19 cells from oxidative damage”.
On to `COc1ccc(-c2cn(-c3ccc(O)cc3)c(=O)c3ccc(O)cc23)cc1` [15b, 6-hydroxy-2-(4-hydroxyphenyl)-4-(4-methoxyphenyl)isoquinolin-1(2H)-one], for which the “Ki Ratio (ER-α/ER-β)” value in test [2] is 8.3.
Take `C=Cc1cn(-c2ccc(O)c(F)c2)c(=O)c2c(O)cc(O)cc12` [15c, 2-(3-fluoro-4-hydroxyphenyl)-6,8-dihydroxy-4-vinylisoquinolin-1(2H)-one]: the results for the pKi in test [1] and in test [2] were 6.69 and 8.40, respectively. Besides, the “Ki Ratio (ER-α/ER-β)” value in test [2] was found to be 51.7.
Consider `COc1ccc(-c2cn(-c3ccc(O)cc3)c(=O)c3c(O)cc(O)cc23)cc1` [15g, 6,8-dihydroxy-2-(4-hydroxyphenyl)-4-(4-methoxyphenyl)isoquinolin-1(2H)-one], for which, in test [2], the pKi is 9.32.
On to `O=c1c2c(O)cc(O)cc2c(-c2ccccc2)cn1-c1ccc(O)cc1` [15h, 6,8-dihydroxy-2-(4-hydroxyphenyl)-4-phenylisoquinolin-1(2H)-one], for which, in test [1], the pKi was 6.91. Besides, in test [2], the “Ki Ratio (ER-α/ER-β)” value was determined as 41.1.
As to `C/C=C/c1cn(-c2ccc(O)cc2)c(=O)c2c(O)cc(O)cc12` [15i, (E)-6,8-dihydroxy-2-(4-hydroxyphenyl)-4-(prop-1-enyl)isoquinolin-1(2H)-one], the pKi in test [1] was 6.99. For the same molecule, the “Ki Ratio (ER-α/ER-β)” value in test [2] is listed as 61.4.
Regarding `COc1ccc(-c2coc3cc(O)cc(O)c3c2=O)cc1` [Biochanin A, reference compound], in test [6], the “Proliferation of RASMC” value was “inhibited the proliferation of RASMC in a dose-dependent manner” and the pEC50 is 5.01.
